The record followed here is patent EP4467535A1, “LACTAM PESTICIDAL COMPOUNDS” (priority 2023, dated 2024).

For orientation: mortality means the percentage killed.

Holding throughout (assay type): in vivo
The subject of assay [1] is Yellow fever mosquito (Aedes aegypti). The assay is described as follows: whole plant or invertebrate. The following applies: 48 h, larval mortality visually assessed after 2 days at 28 ± 1°C, read-out: mortality in comparison with untreated controls. How it is done: Example B1: Action on Yellow fever mosquito (Aedes aegypti)
For evaluating control of yellow fever mosquito (Aedes aegypti) the test unit consisted of 96-well-microtiter plates containing 200µL of tap water per well and 5-15 freshly hatched A. aegypti larvae.
The active compounds or mixtures were formulated using a solution containing 75% (v/v) water and 25% (v/v) DMSO. Different concentrations of formulated compounds or mixtures were sprayed onto the insect diet at 2.5µL, using a custom-built micro atomizer, at two replications.
For experimental mixtures in these tests identical volumes of both mixing partners at the desired concentrations respectively, were mixed together.
After application, microtiter plates were incubated at 28 ± 1°C, 80 ± 5 % relative humidity for 2 days. Larval mortality was then visually assessed.

Assay [2] relates to Orchid thrips (Dichromothrips corbetti). The experiment in a line: Action on Orchid thrips (Dichromothrips corbetti), floral-immersion technique. The following applies: adult thrips on dipped orchid petals, 72 hours after treatment, read-out: mortality in comparison with untreated controls. How it is done: Example B2: Action on Orchid thrips (Dichromothrips corbetti)
Dichromothrips corbetti adults used for bioassay were obtained from a colony maintained continuously under laboratory conditions. For testing purposes, the test compound is diluted in a 1:1 mixture of acetone:water (vol:vol), plus Kinetic® HV at a rate of 0.01% v/v.
Thrips potency of each compound was evaluated by using a floral-immersion technique. All petals of individual, intact orchid flowers were dipped into treatment solution and allowed to dryin Petri dishes. Treated petals were placed into individual re-sealable plastic along with about 20 adult thrips. All test arenas were held under continuous light and a temperature of about 28°C for duration of the assay. After 3 days, the numbers of live thrips were counted on each petal. The percent mortality was recorded 72 hours after treatment.

Assay [3] has as its system Boll weevil (Anthonomus grandis). The assay is described as follows: Action on Boll weevil (Anthonomus grandis), 96-well microtiter plate insect diet test. The following applies: 120 h, egg and larval mortality visually assessed after 5 days, read-out: mortality in comparison with untreated controls. How it is done: Example B3: Action on Boll weevil (Anthonomus grandis )
For evaluating control of boll weevil (Anthonomus grandis) the test unit consisted of 96-well-microtiter plates containing an insect diet and 5-10 A. grandis eggs.
The compounds were formulated using a solution containing 75% (v/v) water and 25% (v/v) DMSO. Different concentrations of formulated compounds were sprayed onto the insect diet at 5 µL, using a custom-built micro atomizer, at two replications.
After application, microtiter plates were incubated at about 25 + 1°C and about 75 + 5 % relative humidity for 5 days. Egg and larval mortality were then visually assessed.

For assay [4], the system named is Silverleaf whitefly (Bemisia argentifolii) (adults). The experiment in a line: Action on Silverleaf whitefly (Bemisia argentifolii) adults, sprayed cotton plants. The note with it: 72 h, read-out: mortality in comparison with untreated controls. How it is done:
Example B4: Action on Silverleaf whitefly (Bemisia argentifolii) (adults)
The active compounds were formulated by a Tecan liquid handler in 100% cyclohexanone as a 10,000 ppm solution supplied in tubes. The 10,000 ppm solution was serially diluted in 100% cyclohexanone to make interim solutions. These served as stock solutions for which final dilutions were made by the Tecan in 50% acetone:50% water (v/v) into 5 or 10ml glass vials. A nonionic surfactant (Kinetic®) was included in the solution at a volume of 0.01% (v/v). The vials were then inserted into an automated electrostatic sprayer equipped with an atomizing nozzle for application to plants/insects.
Cotton plants at the cotyledon stage (one plant per pot) were sprayed by an automated electrostatic plant sprayer equipped with an atomizing spray nozzle. The plants were dried in the sprayer fume hood and then removed from the sprayer. Each pot was placed into a plastic cup and about 10 to 12 whitefly adults (approximately 3-5 days old) were introduced. The insects were collected using an aspirator and a nontoxic Tygon® tubing connected to a barrier pipette tip. The tip, containing the collected insects, was then gently inserted into the soil containing the treated plant, allowing insects to crawl out of the tip to reach the foliage for feeding. […] Mortality was assessed 3 days after treatment, compared to untreated control plants.

Assay [5] has as its system Tobacco budworm (Heliothis virescens). The experiment in a line: Action on Tobacco budworm (Heliothis virescens), 96-well microtiter plate insect diet test. The note with it: 120 h, egg and larval mortality visually assessed after 5 days, read-out: mortality in comparison with untreated controls. The protocol: Example B5: Action on Tobacco budworm (Heliothis virescens)
For evaluating control of tobacco budworm (Heliothis virescens) the test unit consisted of 96-well-microtiter plates containing an insect diet and 15-25 H. virescens eggs.
The compounds were formulated using a solution containing 75% v/v water and 25% v/v DMSO. Different concentrations of formulated compounds were sprayed onto the insect diet at 10 µl, using a custom-built micro atomizer, at two replications.
After application, microtiter plates were incubated at about 28 + 1°C and about 80 + 5 % relative humidity for 5 days. Egg and larval mortality were then visually assessed.

Assay [6] has as its system Diamond back moth (Plutella xylostella). The assay is described as follows: Action on Diamond back moth (Plutella xylostella), cabbage leaf dip test. The following applies: foliar, third instar larvae on dipped cabbage leaves, 72 hours after treatment, read-out: mortality in comparison with untreated controls. The protocol:
Example B6: Action on Diamond back moth (Plutella xylostella)
The active compound is dissolved at the desired concentration in a mixture of 1:1 (v/v) distilled water: acetone. Surfactant (Kinetic® HV) is added at a rate of 0.01% (v/v). The test solution is prepared at the day of use.
Leaves of cabbage were dipped in test solution and air-dried. Treated leaves were placed in petri dishes lined with moist filter paper and inoculated with ten third instar larvae. Mortality was recorded 72 hours after treatment. Feeding damages were also recorded using a scale of 0-100%.

The subject of assay [7] is Southern armyworm (Spodoptera eridania), second instar larvae. The assay is described as follows: Action on Southern armyworm (Spodoptera eridania), sprayed lima bean plants. The following applies: 96 h, 4 days after treatment, read-out: mortality in comparison with untreated controls. How it is done:
Example B7: Action on Southern armyworm (Spodoptera eridania), second instar larvae
The active compounds were formulated by a Tecan liquid handler in 100% cyclohexanone as a 10,000 ppm solution supplied in tubes. The 10,000 ppm solution was serially diluted in 100% cyclohexanone to make interim solutions. These served as stock solutions for which final dilutions were made by the Tecan in 50% acetone:50% water (v/v) into 10 or 20 mL glass vials. A nonionic surfactant (Kinetic®) was included in the solution at a volume of 0.01% (v/v). The vials were then inserted into an automated electrostatic sprayer equipped with an atomizing nozzle for application to plants/insects.
Lima bean plants (variety Sieva) were grown 2 plants to a pot and selected for treatment at the 1st true leaf stage. Test solutions were sprayed onto the foliage by an automated electrostatic plant sprayer equipped with an atomizing spray nozzle. The plants were dried in the sprayer fume hood and then removed from the sprayer. Each pot was placed into perforated plastic bags with a zip closure. About 10 to 11 armyworm larvae were placed into the bag and the bags zipped closed. Test plants were maintained in a growth room at about 25°C and about 20-40% relative humidity for 4 days, avoiding direct exposure to fluorescent light (24 hour photoperiod) to prevent trapping of heat inside the bags. Mortality and reduced feeding were assessed 4 days after treatment, compared to untreated control plants.

With `Cc1ccc(C(C)C)c(N2C(=O)CS/C2=N\N=C\c2ccc(-c3nn(C)c(N4Cc5cc(OC(F)(F)F)ccc5C4=O)c3C)cc2)c1` [C-2, (2Z)-2-[(E)-[4-[1,4-dimethyl-5-[1-oxo-5-(trifluoromethoxy)isoindolin-2-yl]pyrazol-3-yl]phenyl]methylenehydrazono]-3-(2-isopropyl-5-methyl-phenyl)thiazolidin-4-one], the mortality at 800 ppm was at least 50% in assay [1], at least 75% in assay [3] and at least 75% in assay [5]. Besides, the mortality at 300 ppm in assay [2], in assay [4], in assay [6] and in assay [7] was at least 75% throughout.
